The values below come from the Kinase Knowledgebase extract (Sharma et al. 2016).

Molecules are shown by their SMILES.

The experiment addresses MAPK14 (human) (UniProt Q16539). Put plainly: Inhibition of MAPK14 Kinase Activity.

Chain of MAPK14 (human) (Q16539 whole entry, looked up): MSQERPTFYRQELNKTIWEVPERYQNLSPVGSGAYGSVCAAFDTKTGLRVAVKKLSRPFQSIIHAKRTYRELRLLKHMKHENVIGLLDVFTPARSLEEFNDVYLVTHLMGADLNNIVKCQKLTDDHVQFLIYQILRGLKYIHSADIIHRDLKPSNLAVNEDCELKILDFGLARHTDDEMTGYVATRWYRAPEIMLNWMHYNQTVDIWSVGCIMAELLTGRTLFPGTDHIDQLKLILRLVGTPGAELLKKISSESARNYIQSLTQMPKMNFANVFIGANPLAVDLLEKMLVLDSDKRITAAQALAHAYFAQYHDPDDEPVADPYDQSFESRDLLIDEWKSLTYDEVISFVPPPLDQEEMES

`O=C(c1sc2c(ccc(=O)n2-c2ccc(F)cc2)c1Nc1ccc(F)cc1F)N1CC[C@@H](O)C1`: the concentration for half-maximal inhibition (IC50) is less than 1000 nM. The value for `O=C(c1sc2c(ccc(=O)n2-c2ccccc2)c1Nc1ccc(F)cc1F)N1CCCC(O)C1` (configuration not stated) was less than 1000 nM; that for `Cc1cc(Nc2c(C(=O)N3CCC[C@@H]3CO)sc3c2ccc(=O)n3-c2ccc(F)cc2)ccc1F` was less than 1000 nM. With `CC(C)(O)[C@H]1CCCN1C(=O)c1sc2c(ccc(=O)n2-c2ccccc2)c1Nc1ccc(F)cc1F` the figure was less than 1000 nM. With `COC[C@@H]1CCCN1C(=O)c1sc2c(ccc(=O)n2-c2ccccc2)c1Nc1ccccc1` the figure was less than 1000 nM; with `Cc1cc(Nc2c(C(=O)N3CCC[C@H]3CN)sc3c2ccc(=O)n3-c2ccccc2)ccc1F`, less than 1000 nM.

`Cc1cc(Nc2c(C(=O)N3CC[C@@H](N)C3)sc3c2ccc(=O)n3-c2ccccc2)ccc1F`: the IC50 was less than 1000 nM. `Cc1cc(Nc2c(C(=O)N3CC[C@H](O)C3)sc3c2ccc(=O)n3-c2ccc(F)cc2)ccc1F`: the IC50 was less than 1000 nM. The value for `Cc1cccc(-n2c(=O)ccc3c(Nc4ccc(F)c(C)c4)c(C(=O)N4CCC[C@H]4CO)sc32)c1` was less than 1000 nM; that for `O=C(c1sc2c(ccc(=O)n2-c2ccccc2)c1Nc1ccc(F)cc1F)N1CC[C@H](O)C1` was less than 1000 nM; that for `N[C@H]1CCN(C(=O)c2sc3c(ccc(=O)n3-c3ccccc3)c2Nc2ccc(F)cc2F)C1` was less than 1000 nM. With `CN(C)C1CCN(C(=O)c2sc3c(ccc(=O)n3-c3ccccc3)c2Nc2ccc(F)cc2F)CC1` the figure was less than 1000 nM; with `O=C(c1sc2c(ccc(=O)n2-c2ccccc2)c1Nc1cccc(Cl)c1)N1CCC[C@@H]1CO`, less than 1000 nM; with `Cc1cc(Nc2c(C(=O)N3CCC[C@H]3CO)sc3c2ccc(=O)n3-c2ccccc2)ccc1F`, less than 1000 nM. The value for `Cc1ccc(-n2c(=O)ccc3c(Nc4ccc(F)c(C)c4)c(C(=O)N4CC[C@@H](O)C4)sc32)cc1` was less than 1000 nM. Take `O=C(c1sc2c(ccc(=O)n2-c2ccccc2)c1Nc1ccc(F)cc1F)N1C[C@@H](O)[C@H](O)C1`: the IC50 is less than 1000 nM. With `O=C(c1sc2c(ccc(=O)n2-c2ccccc2)c1Nc1ccc(F)cc1F)N1CC(O)C1` the figure was less than 1000 nM. In the case of `O=c1ccc2c(Nc3ccc(F)cc3F)c(S(=O)(=O)N3CCC[C@@H]3CO)sc2n1-c1ccccc1`, the IC50 is less than 1000 nM. The value for `Cc1cccc(Nc2c(C(=O)N3CC[C@H](O)C3)sc3c2ccc(=O)n3-c2ccccc2Cl)c1` was less than 1000 nM; that for `O=C(c1sc2c(ccc(=O)n2-c2ccccc2)c1Nc1ccccc1)N1CCC[C@@H]1CO` was less than 1000 nM; that for `NC[C@@H]1CCCN1C(=O)c1sc2c(ccc(=O)n2-c2ccccc2)c1Nc1ccc(F)cc1F` was less than 1000 nM. With `CC(C)(O)[C@@H]1CCCN1C(=O)c1sc2c(ccc(=O)n2-c2ccccc2)c1Nc1ccc(F)cc1F` the figure was less than 1000 nM; with `Cc1cc(Nc2c(C(=O)N3CC[C@H](O)C3)sc3c2ccc(=O)n3-c2ccccc2)ccc1F`, less than 1000 nM. The value for `Cc1cc(Nc2c(C(=O)N3CC(O)C3)sc3c2ccc(=O)n3-c2ccccc2)ccc1F` was less than 1000 nM; that for `Cc1ccc(-n2c(=O)ccc3c(Nc4ccc(F)cc4F)c(C(=O)N4CCC[C@@H]4CO)sc32)cc1` was less than 1000 nM. As for `COC[C@H]1CCCN1C(=O)c1sc2c(ccc(=O)n2-c2ccccc2)c1Nc1ccccc1`, the IC50 is less than 1000 nM. With `Cc1cc(Nc2c(C(=O)N3CC[C@@H](O)C3)sc3c2ccc(=O)n3-c2ccccc2)ccc1F` the figure was less than 1000 nM. With `O=C(c1sc2c(ccc(=O)n2-c2ccccc2)c1Nc1ccc(F)cc1F)N1CCC(O)CC1` the figure was less than 1000 nM; with `O=C(c1sc2c(ccc(=O)n2-c2ccccc2)c1Nc1ccc(F)cc1F)N1CC[C@@H](O)C1`, less than 1000 nM. The value for `O=C(c1sc2c(ccc(=O)n2-c2ccccc2)c1Nc1ccc(F)cc1F)N1CCC[C@@H]1CO` was less than 1000 nM; that for `Cc1ccc(-n2c(=O)ccc3c(Nc4ccc(F)c(C)c4)c(C(=O)N4CC[C@H](O)C4)sc32)cc1` was less than 1000 nM.

The compound `O=C(c1sc2c(ccc(=O)n2-c2ccccc2)c1Nc1ccccc1Cl)N1CCC[C@@H]1CO` displayed a 50% inhibitory concentration (IC50) of less than 1000 nM. With `Cc1cc(Nc2c(C(=O)N3CCC[C@@H]3CO)sc3c2ccc(=O)n3-c2ccccc2Cl)ccc1F` the figure was less than 1000 nM; with `O=C(c1sc2c(ccc(=O)n2-c2ccccc2)c1Nc1ccc(F)cc1F)N1C[C@@H](O)[C@@H](O)C1`, less than 1000 nM. The value for `N#Cc1ccccc1Nc1c(C(=O)N2CCC[C@H]2CO)sc2c1ccc(=O)n2-c1ccccc1` was less than 1000 nM; that for `Cc1ccc(-n2c(=O)ccc3c(Nc4ccc(F)cc4F)c(C(=O)N4CC[C@@H](O)C4)sc32)cc1` was less than 1000 nM; that for `N#Cc1cccc(Nc2c(C(=O)N3CCC[C@@H]3CO)sc3c2ccc(=O)n3-c2ccccc2)c1` was less than 1000 nM. With `O=C(c1sc2c(ccc(=O)n2-c2ccc(F)cc2)c1Nc1ccc(F)cc1F)N1CC[C@H](O)C1` the figure was less than 1000 nM; with `Cc1cc(Nc2c(C(=O)N3CC[C@H](N)C3)sc3c2ccc(=O)n3-c2ccccc2)ccc1F`, less than 1000 nM; with `NC1CN(C(=O)c2sc3c(ccc(=O)n3-c3ccccc3)c2Nc2ccc(F)cc2F)C1`, less than 1000 nM.

For `Cc1cccc(Nc2c(C(=O)N3CCC[C@@H]3CO)sc3c2ccc(=O)n3-c2cccc(C)c2)c1`, the 50% inhibitory concentration (IC50) is less than 1000 nM. With `Cc1cc(Nc2c(C(=O)N3CC[C@H](O)C3)sc3c2ccc(=O)n3-c2ccccc2Cl)ccc1F` the figure was less than 1000 nM; with `Cc1cc(Nc2c(C(=O)N3CC[C@@H](N(C)C)C3)sc3c2ccc(=O)n3-c2ccccc2)ccc1F`, less than 1000 nM.

`O=C(c1sc2c(ccc(=O)n2-c2ccccc2Cl)c1Nc1ccc(F)cc1F)N1CC[C@H](O)C1` yielded a half-maximal inhibitory concentration (IC50) of less than 1000 nM. For the compound `N[C@@H]1CCN(C(=O)c2sc3c(ccc(=O)n3-c3ccccc3)c2Nc2ccc(F)cc2F)C1`, the IC50 was less than 1000 nM.

As to `NC1CCN(C(=O)c2sc3c(ccc(=O)n3-c3ccccc3)c2Nc2ccc(F)cc2F)CC1`, the IC50 was less than 1000 nM. `O=C(c1sc2c(ccc(=O)n2-c2ccccc2)c1Nc1ccccc1)N1CCC[C@H]1CO` had a concentration for half-maximal inhibition (IC50) of less than 1000 nM. With `Cc1cc(Nc2c(C(=O)N3CCC[C@@H]3CO)sc3c2ccc(=O)n3-c2ccc(Cl)cc2)ccc1F` the figure was less than 1000 nM; with `O=C(c1sc2c(ccc(=O)n2-c2ccccc2)c1Nc1ccc(F)cc1F)N1CCC[C@H]1CO`, less than 1000 nM. The value for `Cc1ccc(-n2c(=O)ccc3c(Nc4ccc(F)cc4F)c(C(=O)N4CC[C@H](O)C4)sc32)cc1` was less than 1000 nM; that for `O=C(c1sc2c(ccc(=O)n2-c2ccccc2Cl)c1Nc1ccc(F)cc1F)N1CC[C@@H](O)C1` was less than 1000 nM.

Compound `Cc1cc(Nc2c(C(=O)N3CC[C@H](N(C)C)C3)sc3c2ccc(=O)n3-c2ccccc2)ccc1F` yielded a half-maximal inhibitory concentration (IC50) of less than 1000 nM. The value for `O=C(c1sc2c(ccc(=O)n2CC2CC2)c1Nc1ccccc1)N1CCC[C@@H]1CO` was less than 1000 nM. In turn, `O=C(c1sc2c(ccc(=O)n2-c2ccccc2)c1Nc1ccc(F)c(Cl)c1)N1CCC[C@H]1CO` came in with an IC50 of less than 1000 nM. `N#Cc1ccccc1Nc1c(C(=O)N2CC[C@@H](O)C2)sc2c1ccc(=O)n2-c1ccccc1` displayed an IC50 of less than 1000 nM. As to `O=C(c1sc2c(ccc(=O)n2-c2ccccc2)c1Nc1ccccc1Cl)N1CCC[C@H]1CO`, the IC50 was less than 1000 nM. With `Cc1ccc(-n2c(=O)ccc3c(Nc4cccc(C)c4)c(C(=O)N4CCC[C@@H]4CO)sc32)cc1` the figure was less than 1000 nM. The compound `O=C(c1sc2c(ccc(=O)n2-c2ccccc2)c1Nc1ccc(F)cc1F)N1C[C@H](O)[C@@H](O)C1` returned an IC50 of less than 1000 nM. The value for `Cc1cccc(Nc2c(C(=O)N3CCC[C@@H]3CO)sc3c2ccc(=O)n3-c2ccccc2)c1` was less than 1000 nM; that for `N#Cc1ccccc1Nc1c(C(=O)N2CCC[C@@H]2CO)sc2c1ccc(=O)n2-c1ccccc1` was less than 1000 nM. The value for `CN(C)[C@@H]1CCN(C(=O)c2sc3c(ccc(=O)n3-c3ccccc3)c2Nc2ccc(F)cc2F)C1` was less than 1000 nM. Consider `CN(C)[C@H]1CCN(C(=O)c2sc3c(ccc(=O)n3-c3ccccc3)c2Nc2ccc(F)cc2F)C1`, for which the IC50 was less than 1000 nM. With `O=C(c1sc2c(ccc(=O)n2-c2ccccc2)c1Nc1ccc(F)c(Cl)c1)N1CCC[C@@H]1CO`, the IC50 is less than 1000 nM.

Turning to `O=C(c1sc2c(ccc(=O)n2-c2ccccc2Cl)c1Nc1ccc(F)cc1F)N1CCC[C@@H]1CO`, the IC50 is less than 1000 nM.

In turn, `NC1CCN(C(=O)c2sc3c(ccc(=O)n3-c3ccccc3)c2Nc2ccc(F)cc2F)C1` (configuration not stated) yielded a half-inhibitory concentration (IC50) of less than 1000 nM.

In the case of `O=C(c1sc2c(ccc(=O)n2-c2ccc(F)cc2)c1Nc1ccc(F)cc1F)N1CCC[C@@H]1CO`, the IC50 is less than 1000 nM. With `CN(C)C1CN(C(=O)c2sc3c(ccc(=O)n3-c3ccccc3)c2Nc2ccc(F)cc2F)C1` the figure was less than 1000 nM; with `Cc1cccc(-n2c(=O)ccc3c(Nc4ccc(F)c(C)c4)c(C(=O)N4CCC[C@@H]4CO)sc32)c1`, less than 1000 nM. With `Cc1ccc(-n2c(=O)ccc3c(Nc4ccc(F)c(C)c4)c(C(=O)N4CCC[C@@H]4CO)sc32)cc1` the figure was less than 1000 nM; with `N#Cc1ccccc1Nc1c(C(=O)N2CC[C@H](O)C2)sc2c1ccc(=O)n2-c1ccccc1`, less than 1000 nM; with `NC[C@H]1CCCN1C(=O)c1sc2c(ccc(=O)n2-c2ccccc2)c1Nc1ccc(F)cc1F`, less than 1000 nM. With `Cc1cc(Nc2c(C(=O)N3CCC[C@@H]3CO)sc3c2ccc(=O)n3-c2ccccc2)ccc1F` the figure was less than 1000 nM.

One may read the IC50 as the concentration at which inhibition is half-maximal. Higher therefore signals weaker potency.
